According to publication PMC6862080, “Blood Compatibility—An Important but Often Forgotten Aspect of the Characterization of Antimicrobial Peptides for Clinical Application” (International Journal of Molecular Sciences, 2019):
Read-outs that look alike come from different tables or passages of the source. Peptide text beside a SMILES is read from it. * marks the point of attachment. Myristoyl = CCCCCCCCCCCCCC(=O)*; Lauroyl = CCCCCCCCCCCC(=O)*

Key:
[1] = system: all species of Enterobacteriaceae and Staphylococcus; conditions: against all species of Enterobacteriaceae and Staphylococcus; cited from earlier work
Protocol: It is noticeable that the MIC decreases with increasing acylation length of the peptide (Table 1). The antimicrobial effect of the LF11-322 peptides against E. coli and S. aureus decreased when the MIC was tested in 4% HSA solution. This is probably due to the partial binding of AMPs to albumin.

S. aureus (ATCC 12600) = test: microbe, parasite or virus in culture; format: cell-based; conditions: for MIC: Staphylococcus aureus; for Minimal Inhibitory Concentration, S. aureus, PBS: ATCC 12600, pH 7.4
E. coli (ATCC 11303) = test: microbe, parasite or virus in culture; format: cell-based; conditions: for MIC: Escherichia coli; for Minimal Inhibitory Concentration, E. coli, PBS: ATCC 11303, pH 7.4
platelets [2] = test: Platelet activation, platelet count in heparin anticoagulated PRP; format: cell-based, human; conditions: 128 μg/mL, 2 h, 37 °C, Sysmex analyzer, n = 3
Protocol: (§1) Since it was observed that some AMPs are able to activate the plasmatic coagulation system of heparinized and citrate anticoagulated blood, the influence of this peptides on platelets was investigated. For this purpose, fresh heparinized and citrated blood were collected from three donors. The blood was centrifuged at 500 g for 5 min and platelet rich plasma (PRP) was obtained. The PRP was incubated at 37 °C for 2 h with 128 μg/mL AMP, PMB, and LL-37. PRP without any additives served as the control. After incubation, the platelet number was determined by a Sysmex Automated Hematology Analyzer KX-21-N (Kobe, Japan). In addition, the PRP samples were prepared for SEM to visualize the morphology of the thrombocytes. After incubation, 10 μL PRP were diluted with 990 μL PBS (0.01 M) and filtered through a 0.2 μm membrane (Membrane Filter Isopore 0.2 μm, Merck, Darmstadt, Germany). The platelets were retained on the membrane, washed with 1 mL PBS, and fixed with 1 mL glutaraldehyde solution (2.5% glutaraldehyde in physiological saline solution). After an incubation time of 60 min, the samples were dehydrated using a series of ethanol (30%, 50%, 60%, 70%, 80%, 90%, and 100%). Afterwards the samples were dried overnight at RT, sputtered with gold and visualized with a scanning electron microscope (FLEXSem 1000, Hitachi, Japan).

erythrocyte membranes [3] = test: Hemolysis in RBC suspended in PBS (Kahn method); format: cell-based, human
Protocol: (§2) Hemolysis was tested with fresh citrate anticoagulated blood from healthy volunteers as well as with blood cells which were suspended in phosphate buffered saline (10 mM pH 7.4). Afterwards, 100 μL AMP solution was added to 500 μL blood to finally achieve AMP concentrations of 8, 32, and 128 μg/mL. As the negative and positive control, 100 μL PBS buffer and 100 μL 12% Triton-X buffer was added to 500 μL blood, respectively. After incubation on an orbital shaker for 60 min at 37 °C, the cells were removed by centrifugation and 100 μL of the supernatant were transferred to a 96 well microplate for hemolysis measurement. The hemolysis was calculated from the extinction at the wavelengths 562, 578, and 598 nm with a Synergy 2 microplate reader (BioTek, Winooski, VT, USA) according to the method published by Kahn.

platelets [4] = test: Platelet activation, platelet count in citrate anticoagulated PRP; format: cell-based, human; conditions: 128 μg/mL, 2 h, 37 °C, Sysmex analyzer, n = 3
Protocol: as §1

erythrocyte membranes [5] = test: Hemolysis in whole blood (Kahn method); format: cell-based, human
Protocol: as §2

platelets [6] = test: SEM imaging of platelet morphology in PRP; format: cell-based, human; conditions: 128 μg/mL, 2 h, 37 °C
Protocol: as §1

human leukocytes = test: Cytotoxicity on leukocytes in whole blood, flow cytometry (7-AAD); format: cell-based; conditions: 128 μg/mL, n = 3
Protocol: The measurement of the membrane destabilization of leukocytes by AMPs was carried out by flow cytometry. […] Whole blood without AMPs or antibiotics was used as a control. After incubation, the proportion of apoptotic and dead cells was determined by flow cytometry. To achieve this, blood samples were diluted 1:100 with 0.01 M phosphate buffered saline and centrifuged at 300 g for 10 min. The supernatant was removed, and cells were stained with 10 μL CD45 pacific blue (leukocyte marker; Beckman coulter, Brea, CA) and 10 μL 7-AAD (a marker for dead cells; Sigma-Aldrich, Steinheim, Germany) for 15 min at room temperature in the dark. After incubation, 1.8 mL lysis buffer (1:10 dilution in distilled water) was added, mixed, and incubated for 10 min at room temperature in the dark. This was followed by two washing steps (2300 g, 5 min, room temperature) and the cells were resuspended in a final volume of 200 μL 0.01 M PBS for measurement. Flow cytometry was performed using a Gallios flow cytometer (Beckman Coulter, Brea, CA, USA) equipped with 405 nm, 488 nm, and 638 nm lasers and the Kaluza Analysis Software (Beckman Coulter, Brea, CA, USA), which was used for measurement and data analysis. Blood cells which were incubated in 70% methanol before staining served as the positive control and blood cells without any additives were used as the negative control.

plasmatic coagulation [7] = test: Clotting batch test in citrate plasma; format: biochemical, human; as to Clotting of citrate plasma, Peptide Concentration 128 μg/mL: key: −: no clotting observed, no D-dimers and normal fibrinogen level; +: clotting observed, high D-dimer level, no detectable fibrinogen serum level; as to Clotting of citrate plasma, Peptide Concentration 256 μg/mL: key: −: no clotting observed, no D-dimers and normal fibrinogen level; +: clotting observed, high D-dimer level, no detectable fibrinogen serum level; as to Clotting of citrate plasma, Peptide Concentration 32 μg/mL: key: −: no clotting observed, no D-dimers and normal fibrinogen level; +: clotting observed, high D-dimer level, no detectable fibrinogen serum level; as to Clotting of citrate plasma, Peptide Concentration 8 μg/mL: key: −: no clotting observed, no D-dimers and normal fibrinogen level; +: clotting observed, high D-dimer level, no detectable fibrinogen serum level
Protocol: Since the acylated LF11-322 peptides cause plasmatic coagulation of citrate anticoagulated plasma, separate clotting experiments were performed with this peptide group. The aim was to check whether the coagulation activation is dependent on the AMP concentration and on the acyl chain length. […] Plasma without additives served as the negative control, whereas plasma spiked with CaCl2/MgCl2 (500/250 mM) solution to restore the physiological calcium and magnesium level in plasma was used as the positive control. Incubation was performed at 37 °C for 60 min. […] In order to ensure that the measured turbidity of the plasma is caused by fibrin formation, the fibrinogen and D-Dimer concentrations were additionally determined. During plasmatic clotting, the fibrinogen level decreases and the D-Dimer level in serum increases. Both were analyzed on a Sysmex CA560 with the corresponding reagents (Siemens Healthineers, Erlangen, Germany).

plasmatic coagulation [8] = test: Activation of the clotting cascade in heparinized plasma; conditions: heparinized (0.5 IU/mL) plasma, 128 μg/mL, 37 °C, 120 min, turbidity at 600 nm
Protocol: (§3) Plasma spiked with MES buffer without AMP was used as the negative control. […] Samples were incubated at 37 °C for 120 min. Coagulation was determined by turbidity measurement at 600 nm using a well plate reader.

plasmatic coagulation [9] = test: Activation of the clotting cascade in citrated plasma; conditions: citrated (17 mM) plasma, 128 μg/mL, 37 °C, 120 min, turbidity at 600 nm
Protocol: as §3

[10] = citrate plasma, 37 °C, 60 min, turbidity 600 nm, fibrinogen and D-Dimer

Compound	Platelet count in heparinized PRP vs control (in words) (platelets [2])	Free Hemoglobin, RBC in PBS, 8 μg/mL (erythrocyte membranes [3]; pH 7.4)	Free Hemoglobin, RBC in PBS, 32 μg/mL (erythrocyte membranes [3]; pH 7.4)	Platelet count in citrate anticoagulated PRP vs control (in words) (platelets [4])	Minimal Inhibitory Concentration, S. aureus, PBS (S. aureus (ATCC 12600))	Minimal Inhibitory Concentration, E. coli, PBS (E. coli (ATCC 11303))	Free Hemoglobin, BLOOD, 8 μg/mL (erythrocyte membranes [5])	Free Hemoglobin, BLOOD, 32 μg/mL (erythrocyte membranes [5])	Free Hemoglobin, BLOOD, 128 μg/mL (erythrocyte membranes [5])	Platelet morphology by SEM, citrate anticoagulated PRP (in words) (platelets [6])	other results
O=C(O)c1cn(C2CC2)c2cc(N3CCNCC3)c(F)cc2c1=O [Ciprofloxacin, reference compound]											MIC90 [1]: < 1 mg/L; MIC (S. aureus (ATCC 12600); ATCC12600, pH 7.4, read-out: Minimal Inhibitory Concentration, S. aureus, PBS): < 0.0625 µg/mL; MIC (S. aureus (ATCC 12600); ATCC12600, read-out: Minimal Inhibitory Concentration, S. aureus, PBS + heparin): < 0.0625 µg/mL; MIC (E. coli (ATCC 11303); ATCC11303, pH 7.4, read-out: Minimal Inhibitory Concentration, E. coli, PBS): < 0.0625 µg/mL; MIC (E. coli (ATCC 11303); ATCC11303, read-out: Minimal Inhibitory Concentration, E. coli, PBS + heparin): < 0.0625 µg/mL
CCCCCCCCCCCC(=O)N1CCC[C@H]1C(=O)N[C@@H](Cc1ccccc1)C(=O)N[C@@H](Cc1c[nH]c2ccccc12)C(=O)N[C@@H](CCCNC(=N)N)C(=O)N[C@H](C(=O)N[C@@H](CCCNC(=N)N)C(=O)N[C@H](C(=O)N[C@@H](CCCNC(=N)N)C(=O)N[C@@H](CCCNC(=N)N)C(N)=O)[C@@H](C)CC)[C@@H](C)CC [LF11-322-C12] (Lauroyl-PFWRIRIRR-NH2)	no significant difference in platelet count	15.5 ± 1.2 mg/dL	36.1 ± 2.0 mg/dL	significantly reduce the platelet count	16 µg/mL	32 µg/mL	2.4 ± 2.6 mg/dL	8.6 ± 8.6 mg/dL	3.2 ± 4.5 mg/dL		
CCCCCCCCCCCCCC(=O)N1CCC[C@H]1C(=O)N[C@@H](Cc1ccccc1)C(=O)N[C@@H](Cc1c[nH]c2ccccc12)C(=O)N[C@@H](CCCNC(=N)N)C(=O)N[C@H](C(=O)N[C@@H](CCCNC(=N)N)C(=O)N[C@H](C(=O)N[C@@H](CCCNC(=N)N)C(=O)N[C@@H](CCCNC(=N)N)C(N)=O)[C@@H](C)CC)[C@@H](C)CC [LF11-322-C14] (Myristoyl-PFWRIRIRR-NH2)	no significant difference in platelet count	12.9 ± 1.2 mg/dL	31.8 ± 3.14 mg/dL	significantly reduce the platelet count	8 µg/mL	64 µg/mL	2.9 ± 3.4 mg/dL	5.4 ± 3.2 mg/dL	2.9 ± 4.2 mg/dL	hardly any intact platelets left	Percentage of dead leukocytes (human leukocytes; citrate anticoagulated whole blood, 37 °C, 120 min / 60 min, CD45, flow cytometry): 21 ± 16%; Peptide concentration that triggers clotting of citrate plasma (plasmatic coagulation [7]): ≥ 32 µg/mL
CC[C@H](C)[C@H](NC(=O)[C@H](CCCCN)NC(=O)[C@H](CCC(=O)O)NC(=O)[C@H](CCCCN)NC(=O)[C@H](CO)NC(=O)[C@H](CCCCN)NC(=O)[C@H](CCCNC(=N)N)NC(=O)[C@H](Cc1ccccc1)NC(=O)[C@H](Cc1ccccc1)NC(=O)[C@H](CC(=O)O)NC(=O)CNC(=O)[C@H](CC(C)C)NC(=O)[C@@H](N)CC(C)C)C(=O)NCC(=O)N[C@@H](CCCCN)C(=O)N[C@@H](CCC(=O)O)C(=O)N[C@@H](Cc1ccccc1)C(=O)N[C@@H](CCCCN)C(=O)N[C@@H](CCCNC(=N)N)C(=O)N[C@H](C(=O)N[C@H](C(=O)N[C@@H](CCC(N)=O)C(=O)N[C@@H](CCCNC(=N)N)C(=O)N[C@H](C(=O)N[C@@H](CCCCN)C(=O)N[C@@H](CC(=O)O)C(=O)N[C@@H](Cc1ccccc1)C(=O)N[C@@H](CC(C)C)C(=O)N[C@@H](CCCNC(=N)N)C(=O)N[C@@H](CC(N)=O)C(=O)N[C@@H](CC(C)C)C(=O)N[C@H](C(=O)N1CCC[C@H]1C(=O)N[C@@H](CCCNC(=N)N)C(=O)N[C@H](C(=O)N[C@@H](CCC(=O)O)C(=O)N[C@@H](CO)C(=O)O)[C@@H](C)O)C(C)C)[C@@H](C)CC)C(C)C)[C@@H](C)CC [LL-37, reference compound]											Free Hemoglobin, RBC in PBS, 128 μg/mL (erythrocyte membranes [3]; blood cells suspended in PBS 10 mM pH 7.4, highest peptide conc., 60 min 37 °C, Kahn method, n = 3, control 8.5 ± 4.7): 68.4 ± 15.0 mg/dL; Free Hemoglobin, RBC in PBS, 8 μg/mL (erythrocyte membranes [3]; blood cells suspended in PBS 10 mM pH 7.4, peptide conc. 8 μg/mL, 60 min 37 °C, Kahn method, n = 3, control 8.5 ± 4.7): 2.4 ± 3.6 mg/dL; Free Hemoglobin, RBC in PBS, 32 μg/mL (erythrocyte membranes [3]; blood cells suspended in PBS 10 mM pH 7.4, peptide conc. 32 μg/mL, 60 min 37 °C, Kahn method, n = 3, control 8.5 ± 4.7): 44.8 ± 17.7 mg/dL; Plasma clot, Heparin Plasma (plasmatic coagulation [8]): −; Clotting of citrate plasma, Peptide Concentration 8 μg/mL (plasmatic coagulation [7]; [10]): −; Clotting of citrate plasma, Peptide Concentration 32 μg/mL (plasmatic coagulation [7]; [10]): −; Clotting of citrate plasma, Peptide Concentration 128 μg/mL (plasmatic coagulation [7]; [10]): −; Clotting of citrate plasma, Peptide Concentration 256 μg/mL (plasmatic coagulation [7]; [10]): −; Plasma clot, Citrated Plasma (plasmatic coagulation [9]): −; Free Hemoglobin, BLOOD, 8 μg/mL (erythrocyte membranes [5]; citrate anticoagulated whole blood, peptide conc. 8 μg/mL, 60 min 37 °C, Kahn method, n = 3, control 3.7 ± 1.9): 1.1 ± 0.7 mg/dL; Free Hemoglobin, BLOOD, 32 μg/mL (erythrocyte membranes [5]; citrate anticoagulated whole blood, peptide conc. 32 μg/mL, 60 min 37 °C, Kahn method, n = 3, control 3.7 ± 1.9): 9.4 ± 13.4 mg/dL; Free Hemoglobin, BLOOD, 128 μg/mL (erythrocyte membranes [5]; citrate anticoagulated whole blood, peptide conc. 128 μg/mL, 60 min 37 °C, Kahn method, n = 3, control 3.7 ± 1.9): 2.6 ± 3.7 mg/dL
H-PFWRIRIRR-NH2 [LF11-322-NH2]		10.4 ± 2.4 mg/dL	14.2 ± 3.5 mg/dL		4 µg/mL	4 µg/mL	5.0 ± 5.3 mg/dL	5.9 ± 4.4 mg/dL	2.6 ± 3.7 mg/dL	strongly change their shape	Cytotoxic effect on leukocytes in whole blood (in words) (human leukocytes; whole blood, flow cytometry): no cytotoxic properties on leukocytes
